Source: PMC10914731, “Homo-BacPROTAC-induced degradation of ClpC1 as a strategy against drug-resistant mycobacteria” (Nature Communications, 2024)
Values after ≈ are worked out from the molar mass of the structure shown. Values joined by “and” are separate entries in the source; they are usually repeats but may differ in a detail not shown here. Equal values may be shown once. *1 amine or outer side, *2 acyl side, *3 side chain or, on linkers, in order; H or OH if unused. Where a SMILES comes first, the peptide text is derived from it. [ ]: non-standard residue; d: D form. X1 = C#CCn1cc(C[C@H](N[*:1])C(=O)[*:2])c2ccccc21; NMeLeu(5-OH,4R) = CN[C@@H](C[C@@H](C)CO)C(=O)O; Phe(βR-OMe) = CO[C@H](c1ccccc1)[C@H](N)C(=O)O; Trp(1-Me) = Cn1cc(C[C@H](N)C(=O)O)c2ccccc21; NMeL = CN[C@@H](CC(C)C)C(=O)O; Pra = C#CC[C@H](N)C(=O)O

System: Mtb (RpoB S450L) ATCC 35838
Type: cell-based, Mycobacterium tuberculosis

| SMILES | MIC |
| --- | --- |
| CO[C@H]1/C=C/O[C@@]2(C)Oc3c(C)c(O)c4c(O)c(c(/C=N/N5CCN(C)CC5)c(O)c4c3C2=O)NC(=O)/C(C)=C\C=C\[C@H](C)[C@H](O)[C@@H](C)[C@@H](O)[C@@H](C)[C@H](OC(C)=O)[C@@H]1C [Rifampicin, reference compound] | >38.9 µM and >38.88 µM |
| COC(c1ccccc1)C1NC(=O)C(C)NC(=O)C(CC(C)CO)N(C)C(=O)C(Cc2cn(C)c3ccccc23)NC(=O)C(Cc2cn(CCCCCn3cc(CC4NC(=O)C(CC(C)C)N(C)C(=O)C(C(C)C)NC(=O)C(C(OC)c5ccccc5)NC(=O)C(C)NC(=O)C(CC(C)CO)N(C)C(=O)C(Cc5cn(C)c6ccccc56)NC4=O)nn3)nn2)NC(=O)C(CC(C)C)N(C)C(=O)C(C(C)C)NC1=O (stereo not shown) [Compound 12] | 0.2 ± 0.0 µM (≈ 0.396 µg/mL) |
| NNC(=O)c1ccncc1 [Isoniazid] | 0.5 ± 0.0 µM and 0.45 µM |
| COc1c(N2C[C@@H]3CCCN[C@@H]3C2)c(F)cc2c(=O)c(C(=O)O)cn(C3CC3)c12 [Moxifloxacin, reference compound] | 0.3 ± 0.0 µM and 0.31 µM |
| C#CC[C@@H]1NC(=O)[C@H](CC(C)C)N(C)C(=O)[C@H](C(C)C)NC(=O)[C@H]([C@H](OC)c2ccccc2)NC(=O)[C@H](C)NC(=O)[C@H](C[C@@H](C)CO)N(C)C(=O)[C@H](Cc2cn(C)c3ccccc23)NC1=O [Compound 10] (cyclo(A[Phe(βR-OMe)]V[NMeL][Pra][Trp(1-Me)][NMeLeu(5-OH,4R)])) | 1.6 ± 0.0 µM (≈ 1.46 µg/mL) |
| C#CCn1cc(C[C@@H]2NC(=O)[C@H](C(C)C)NC(=O)[C@H](CC(C)C)N(C)C(=O)[C@H](C(C)C)NC(=O)[C@H]([C@H](OC)c3ccccc3)NC(=O)[C@H](C)NC(=O)[C@H](C[C@@H](C)CO)N(C)C2=O)c2ccccc21 [Compound 5] (cyclo(A[Phe(βR-OMe)]V[NMeL]V[X1][NMeLeu(5-OH,4R)])) | 0.4 ± 0.0 µM (≈ 0.376 µg/mL) |
| COC(c1ccccc1)C1NC(=O)C(C)NC(=O)C(CC(C)CO)N(C)C(=O)C(Cc2cn(Cc3cn(CCOCCOCCOCCOCCn4cc(Cn5cc(CC6NC(=O)C(C(C)C)NC(=O)C(CC(C)C)N(C)C(=O)C(C(C)C)NC(=O)C(C(OC)c7ccccc7)NC(=O)C(C)NC(=O)C(CC(C)CO)N(C)C6=O)c6ccccc65)nn4)nn3)c3ccccc23)NC(=O)C(C(C)C)NC(=O)C(CC(C)C)N(C)C(=O)C(C(C)C)NC1=O (stereo not shown) [Compound 8] | 0.2 ± 0.0 µM (≈ 0.434 µg/mL) |
